US20070249720A1, “Thiourea Derivative-Containing Pharmaceutical Composition Having Improved Solubility and Bioavailability” (priority 2003, published 2007)
In brackets after ≈: the same amount, converted by molar mass.

Assays:
[1] = Solubility of Compound 1 in aqueous 2-hydroxypropyl-β-cyclodextrin solutions (HPLC); type: physicochemical; conditions: aqueous 2-hydroxypropyl-β-cyclodextrin solution, thermodynamic from solid, stirred 72 hours
Experimental: 0.4 g of 1-(4-t-butylbenzyl)-3-(3-fluoro-4-methanesulfonylaminobenzyl)thiourea (Compound 1) was added to each 10 ml of 0, 1.5, 3.5, 7.0, 14.0 and 28.0 w/v % aqueous solutions of 2-hydroxypropyl-β-cyclodextrin. The resulting mixture was stirred for 72 hours, filtered through a 0.2 micrometer filter paper. The concentration of Compound 1 in the filtrate was determined by high performance liquid chromatography (HPLC) and the solubility of Compound 1 depending on the concentration of 2-hydroxypropyl-β-cyclodextrin is presented in Table 1.

[2] = Solubility of Compound 1 in 2-hydroxypropyl-β-cyclodextrin solution in glycine buffer (pH 10.5) (HPLC); type: physicochemical; conditions: thermodynamic from solid, stirred 72 hours
Experimental: 0.4 g of 1-(4-t-butylbenzyl)-3-(3-fluoro-4-methanesulfonylaminobenzyl)thiourea (Compound 1) was added to each 10 ml of 0, 1.5, 3.5, 7.0, 14.0 and 28.0 w/v % 2-hydroxypropyl-β-cyclodextrin solution in glycine buffer (pH 10.5). The resulting mixture was stirred for 72 hours, filtered through a 0.2 micrometer filter paper.
The concentration of Compound 1 in the filtrate was determined by high performance liquid chromatography (HPLC) and the solubility of Compound 1 depending on the concentration of 2-hylroxypropyl-β-cyclodextrin is presented in Table 2.

[3] = Solubility of Compound 1 in 95% ethanol solution containing 2-hydroxypropyl-β-cyclodextrin (HPLC); type: physicochemical; conditions: organic solvent or mixture, thermodynamic from solid, stirred 72 hours
Experimental: 5 g of 1-(4-t-butylbenzyl)-3-(3-fluoro-4-methanesulfonylaminobenzyl)thiourea (Compound 1) was added to 100 ml of 95% ethanol solution containing 0, 1.0, 2.0, 5.0, 10.0 or 20.0 w/v % of 2-hylroxypropyl-β-cyclodextrin, and the mixture was stirred for 72 hours and then filtered through a 0.2 micrometer filter paper. The concentration of Compound 1 in the filtrate was determined by high performance liquid chromatography (HPLC) and the solubility of Compound 1 depending on the concentration of 2-hydroxypropyl-β-cyclodextrin is presented in Table 4.

[4] = Comparative dissolution test (Paddle method, Korean pharmacopoeia); type: physicochemical; conditions: water as release solvent, 37° C., 50 rpm, FIG. 1
Experimental: 1-(4-t-butylbenzyl)-3-(3-fluoro-4-methanesulfonylaminobenzyl)thiourea (Compound 1) and the tablet prepared in Formulation Example 2 were subjected to test in accordance with dissolution test method II (Paddle method) described in Korean pharmacopoeia using water as a release solvent.
3 ml samples were taken at a given time interval under the condition of 37° C. and 50 rpm, and filtered through a 0.45 micrometer filter. The concentration of Compound 1 in each sample was determined by HPLC.

[5] = Test for pharmacokinetics after oral administration to rats; type: in vivo; conditions: orally administered, 10 mg/kg
Source text: 1-(4-t-Butylbenzyl)-3-(3-fluoro-4-methanesulfonylaminobenzyl)thiourea (Compound 1) and the liquid formulation prepared in Formulation Example 3 were each orally administered to rats, and the changes in the plasma drug concentration were monitored according to a set time schedule. Each experimental animal group consisted of four male rats. After the rats were anesthetized with ether and operated for inserting a PE-50 polyethylene tube into the femoral artery, the suspension of Compound 1 in 0.5% sodium carboxymethylcellulose solution and the liquid formulation of Formulation Example 3 were each orally administered to the rats. At 15, 30, 60, 120, 210, 300 and 480 minutes after the administration, 150 micro liter blood samples were taken from the rats. Each blood sample was centrifuged to separate plasma, which was then subjected to HPLC to determine the concentration of Compound 1 in plasma.

solubility at 72 h ([1]; aqueous with cosolvent or surfactant or cyclodextrin, 1.5 w/v % 2-hydroxypropyl-β-cyclodextrin): 0.4 mg/mL (≈ 0.944 mM) | solubility at 72 h ([1]; aqueous with cosolvent or surfactant or cyclodextrin, 3.5 w/v % 2-hydroxypropyl-β-cyclodextrin): 1.04 mg/mL (≈ 2.46 mM) | solubility at 72 h ([1]; aqueous with cosolvent or surfactant or cyclodextrin, 7.0 w/v % 2-hydroxypropyl-β-cyclodextrin): 4.18 mg/mL (≈ 9.87 mM) | solubility at 72 h ([1]; aqueous with cosolvent or surfactant or cyclodextrin, 14.0 w/v % 2-hydroxypropyl-β-cyclodextrin): 12.2 mg/mL (≈ 28.9 mM) | solubility at 72 h ([1]; aqueous with cosolvent or surfactant or cyclodextrin, 28.0 w/v % 2-hydroxypropyl-β-cyclodextrin): 29 mg/mL (≈ 68.4 mM) | solubility at 72 h ([1]; water, 0 w/v % 2-hydroxypropyl-β-cyclodextrin): 0.01 mg/mL (≈ 0.0236 mM) | solubility at 72 h ([2]; pH 10.5, aqueous buffer, 0 w/v % 2-hydroxypropyl-β-cyclodextrin): 0.05 mg/mL (≈ 0.118 mM) | solubility at 72 h ([2]; pH 10.5, aqueous with cosolvent or surfactant or cyclodextrin, 1.5 w/v % 2-hydroxypropyl-β-cyclodextrin): 2.7 mg/mL (≈ 6.37 mM) | solubility at 72 h ([2]; pH 10.5, aqueous with cosolvent or surfactant or cyclodextrin, 3.5 w/v % 2-hydroxypropyl-β-cyclodextrin): 4.8 mg/mL (≈ 11.3 mM) | solubility at 72 h ([2]; pH 10.5, aqueous with cosolvent or surfactant or cyclodextrin, 7.0 w/v % 2-hydroxypropyl-β-cyclodextrin): 9.62 mg/mL (≈ 22.7 mM) | solubility at 72 h ([2]; pH 10.5, aqueous with cosolvent or surfactant or cyclodextrin, 14.0 w/v % 2-hydroxypropyl-β-cyclodextrin): 18 mg/mL (≈ 42.5 mM) | solubility at 72 h ([2]; pH 10.5, aqueous with cosolvent or surfactant or cyclodextrin, 28.0 w/v % 2-hydroxypropyl-β-cyclodextrin): 32.5 mg/mL (≈ 76.7 mM) | solubility at 72 h ([3]; 0 w/v % 2-hydroxypropyl-β-cyclodextrin): 19.7 mg/mL (≈ 46.6 mM) | solubility at 72 h ([3]; 1.0 w/v % 2-hydroxypropyl-β-cyclodextrin): 21.2 mg/mL (≈ 50.1 mM) | solubility at 72 h ([3]; 2.0 w/v % 2-hydroxypropyl-β-cyclodextrin): 22.7 mg/mL (≈ 53.5 mM) | solubility at 72 h ([3]; 5.0 w/v % 2-hydroxypropyl-β-cyclodextrin): 27.2 mg/mL (≈ 64.3 mM) | solubility at 72 h ([3]; 10.0 w/v % 2-hydroxypropyl-β-cyclodextrin): 34.1 mg/mL (≈ 80.6 mM) | solubility at 72 h ([3]; 20.0 w/v % 2-hydroxypropyl-β-cyclodextrin): 43.5 mg/mL (≈ 103 mM) | percent dissolution of drug [4]: insoluble in water | bioavailability ([5]; male, rat, plasma, po, read-out: BA: Bioavailability): 16.5% | Cmax ([5]; male, rat, plasma, po, read-out: Cmax: Maximum plasma concentration): 670 ng/mL | Tmax ([5]; male, rat, plasma, po, read-out: Tmax: Time at the maximum plasma concentration): 30 min | AUC: Area under the plasma concentration vs. time curve till 24 hours [5]: 2.79 microgram · h/ml
SMILES: CC(C)(C)c1ccc(CNC(=S)NCc2ccc(NS(C)(=O)=O)c(F)c2)cc1 [Compound 1, 1-(4-t-butylbenzyl)-3-(3-fluoro-4-methanesulfonylaminobenzyl)thiourea]
